Experimental data published in paper PMC8767159, “Multiparameter Optimization of Trypanocidal Cruzain Inhibitors With In Vivo Activity and Favorable Pharmacokinetics” (Frontiers in Pharmacology, 2022).

What was measured:
[1] = In vitro metabolic stability in mouse liver microsomes; format: in vitro ADME; conditions: mouse, liver microsomes
Method in brief: (§1)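 Compounds incubated at 37°C with mouse or human liver microsomes (0.25 mg/ml) in potassium phosphate buffer with NADPH; samples quenched in ACN/MeOH at 0, 5, 10, 15, 20 and 30 min. Parent remaining by LC-MS/MS relative to 0 min; T½ = ln(2)/k, CLint = k*1000/0.25 (μL/min/mg).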

[2] = Experimental distribution coefficient (eLogD) by LC retention time; format: physicochemical; conditions: for chromatographic logD: C18 column (LC retention time)
Experimental: For the eLogD assays ([Waring, 2010]), each compound (5 μl) from a 5 mM stock solution was diluted in 245 μl of a solution containing buffers A (5% MeOH, 10 mM ammonium acetate, pH 7.4) and B (100% MeOH, pH 7.4) (50:50). Nine control compounds with known eLogD and column retention times (acyclovir, atenolol, antipyrine, fluconazole, metoprolol, carbamazepine, ketoconazole, tolnaftate, and amiodarone; eLogD values ranging from −1.86 to 6.1) were subjected to LC-MS/MS in triplicate before and after the analysis of the test compounds. Retention times were recorded for each control and test compound in a C18 column. The retention time of each control compound was plotted against the respective eLogD values described in the literature ([Lombardo et al., 2002]; [Lombardo et al., 2004]; [Alelyunas et al., 2010]). The resulting linear equation (y = mx + b) was used to calculate the eLogD values of the test compounds, in which x is the retention time in minutes and y is the eLogD value.

[3] = Parallel artificial membrane permeability assay (PAMPA); format: in vitro ADME; design: PAMPA: unit: 1e-6 cm/s; conditions: for PAMPA: unit not given
Experimental: The permeability of the compounds was assessed using the PAMPA method ([Yu et al., 2015]). The test compounds were dissolved in DMSO to a concentration of 5 mM. Next, the compounds were diluted in a stock plate in saline phosphate buffer (PBS), pH 6.5, containing 1% DMSO to a concentration of 1 µM. Then, 300 µl of each test compound was added to the donor plate. Afterward, 200 µl of PBS buffer, pH 7.4, was added to the acceptor plate. The donor plate was attached to the acceptor plate. The assembled acceptor-donor plate was then incubated at 37°C for 5 h under gentle agitation. To analyze the concentration of the compounds by mass spectrometry, two analysis plates (one for the donor and another for the acceptor plate) containing 300 μl of MEOH:ACN 50:50 were prepared. To the donor analysis plate, 90 µl of PBS, pH 6.5, and 10 µl of the content of the donor plate were added. For the acceptor analysis plate, 100 µl of the content of the acceptor plate was added. To monitor any potential decomposition/intrinsic instability of the test compounds in solution, samples from the stock plate were subjected to LC-MS/MS. The compounds that presented Pe ≥ 1.5 × 10^−6 cm/s were classified as permeable, while compounds that presented Pe < 1.5 × 10^−6 cm/s were considered poorly permeable or nonpermeable.

[4] = In vitro metabolic stability in human liver microsomes; format: in vitro ADME; conditions: for CLint scaled at 5 µM: human, liver microsomes
Method in brief: as §1

[5] = Table S5, CLint/fu, read-out: CLint_u (L/h/kg) Mouse (converted)
[6] = Table S5, read-out: CLint (L/h/kg) Mouse (converted)
[7] = Table S5, CLint/fu, read-out: CLint_u (L/h/kg) Human (converted)
[8] = Table S5, read-out: CLint (L/h/kg) Human (converted)
[9] = Table 5, CLint/fu, read-out: CLint_u (L/h/kg) mouse (converted)
[10] = Table 5, read-out: CLint (L/h/kg) mouse (converted)
[11] = Table 5, CLint/fu, read-out: CLint_u (L/h/kg) human (converted)
[12] = Table 5, read-out: CLint (L/h/kg) human (converted)
[13] = PAMPA, Table 3, donor pH 6.5, acceptor pH 7.4, 5 h

| SMILES | CLint scaled at 5 µM [1, 5] | CLint scaled at 5 µM [1, 6] | chromatographic logD ([2]; pH 7.4, Table S5) | Papp at 5 h, 1 µM ([3]; Table S5, unit inferred) | CLint scaled at 5 µM [4, 7] | CLint scaled at 5 µM [4, 8] | CLint scaled at 5 µM [1, 9] | CLint scaled at 5 µM [1, 10] | chromatographic logD ([2]; pH 7.4, Table 5) | Papp at 5 h, 1 µM ([3]; PAMPA, Table 5) | CLint scaled at 5 µM [4, 11] | CLint scaled at 5 µM [4, 12] | chromatographic logD ([2]; pH 7.4, Table 3, pH 7.4) | eLogD ([2]; Table S5) | Papp at 5 h, 1 µM [3, 13] | PAMPA ([3]; Table S5) | eLogD ([2]; Table 3, pH 7.4) | CLint_u (L/h/kg) Human ([4]; Table S5, CLint/fu) |
| --- | --- | --- | --- | --- | --- | --- | --- | --- | --- | --- | --- | --- | --- | --- | --- | --- | --- | --- |
| O=C(COc1ccc(NC(=O)CCCO)cc1)NCCc1nc2ccccc2[nH]1 [Compound 5] | 4.51 L/h/kg | 4.43 L/h/kg | 1.83 | 0.02 ×10⁻⁶ cm/s | 1.53 L/h/kg | 1.5 L/h/kg |  |  |  |  |  |  |  |  |  |  |  |  |
| N#Cc1ccccc1OCC(=O)NCCc1nc2ccccc2[nH]1 [Compound 31] |  |  |  |  |  |  | 87.9 L/h/kg | 74.6 L/h/kg | 2.6 | 2.2 ×10⁻⁶ cm/s | 6.6 L/h/kg | 5.6 L/h/kg |  |  |  |  |  |  |
| O=C(COc1ccccc1)NCCc1nc2ccccc2n1CCOCc1ccccc1 [Compound 21] | 1790 L/h/kg | 847 L/h/kg | 4.24 | 3.98 ×10⁻⁶ cm/s | 496 L/h/kg | 235 L/h/kg |  |  |  |  |  |  |  |  |  |  |  |  |
| C=CCCn1c(CCNC(=O)COc2ccccc2Cl)nc2ccccc21 [Compound 38] |  |  |  |  |  |  | 2030 L/h/kg | 934 L/h/kg | 4.1 | 7.7 ×10⁻⁶ cm/s | 501 L/h/kg | 230 L/h/kg |  |  |  |  |  |  |
| O=C(COc1ccc2cc(O)ccc2c1)NCCc1nc2ccccc2[nH]1 [Compound 10] | 32.3 L/h/kg | 26.4 L/h/kg |  |  | 8.15 L/h/kg | 6.66 L/h/kg |  |  |  |  |  |  | 3.17 | 3.17 | 0.21 ×10⁻⁶ cm/s | 0.21 |  |  |
| COCCn1c(CCNC(=O)COc2ccccc2)nc2ccccc21 [Compound 29] | 235 L/h/kg | 235 L/h/kg | 3.13 | 9.35 ×10⁻⁶ cm/s | 23 L/h/kg | 23 L/h/kg |  |  |  |  |  |  |  |  |  |  |  |  |
| O=C(COc1ccccc1)NCCc1nc2ccccc2n1CCOc1ccccc1Br [Compound 19] | 2580 L/h/kg | 305 L/h/kg | 4.5 | 0.08 ×10⁻⁶ cm/s | 949 L/h/kg | 112 L/h/kg |  |  |  |  |  |  |  |  |  |  |  |  |
| O=C(COc1cccc([N+](=O)[O-])c1)NCCc1nc2ccccc2[nH]1 [Compound 8] | 67.5 L/h/kg | 67.5 L/h/kg |  |  | 6.58 L/h/kg | 6.58 L/h/kg |  |  |  |  |  |  | 2.98 | 2.98 | 2.17 ×10⁻⁶ cm/s | 2.17 |  |  |
| O=C(COc1ccc(N2C(=O)CCC2=O)cc1)NCCc1nc2ccccc2[nH]1 [Compound 4] | 20.9 L/h/kg | 20.8 L/h/kg | 1.59 | 0.17 ×10⁻⁶ cm/s | < 1.51 L/h/kg | < 1.5 L/h/kg |  |  |  |  |  |  |  |  |  |  |  |  |
| O=C(COc1ccc2ccccc2c1)NCCc1nc2ccccc2[nH]1 [Compound 35] |  |  |  |  |  |  | 1170 L/h/kg | 565 L/h/kg | 3.9 | 0.7 ×10⁻⁶ cm/s | 43.9 L/h/kg | 21.1 L/h/kg |  |  |  |  |  |  |
| O=C(COc1ccccc1)NCCc1nc2ccccc2n1CCOc1ccccc1 [Compound 20] | 1200 L/h/kg | 489 L/h/kg |  |  | 301 L/h/kg | 123 L/h/kg |  |  |  |  |  |  | 4.24 | 4.24 | 4.3 ×10⁻⁶ cm/s | 4.30 |  |  |
| CC(=O)Nc1ccc(OCC(=O)NCCc2nc3ccccc3[nH]2)cc1 [Compound 2] | < 4.43 L/h/kg | < 4.43 L/h/kg |  |  | < 1.5 L/h/kg | < 1.5 L/h/kg |  |  |  |  |  |  | 1.92 | 1.92 | 0.21 ×10⁻⁶ cm/s | 0.21 |  |  |
| O=C(COc1ccc2ccc(O)cc2c1)NCCc1nc2ccccc2[nH]1 [Compound 11] | 68.5 L/h/kg | 45.7 L/h/kg |  | 0.13 ×10⁻⁶ cm/s | 14.2 L/h/kg | 9.48 L/h/kg |  |  |  |  |  |  |  | 3.37 | 0.17 ×10⁻⁶ cm/s |  | 2.26 |  |
| O=C(COc1cccc(N2C(=O)CCC2=O)c1)NCCc1nc2ccccc2[nH]1 [Compound 6] | 217 L/h/kg | 217 L/h/kg | 1.8 | 0.2 ×10⁻⁶ cm/s | 3.54 L/h/kg | 3.54 L/h/kg |  |  |  |  |  |  |  |  |  |  |  | 3.54 L/h/kg |
| O=C(COc1ccccc1)NCCc1nc2ccccc2n1CCCOc1ccccc1 [Compound 24] | 1850 L/h/kg | 501 L/h/kg |  |  | 524 L/h/kg | 142 L/h/kg |  |  |  |  |  |  | 4.45 | 4.45 | 2.29 ×10⁻⁶ cm/s | 2.29 |  |  |
| O=C(COc1ccccc1)NCCc1nc2ccccc2n1-c1ccccc1 [Compound 30] | 1130 L/h/kg | 713 L/h/kg | 4.04 | 17.8 ×10⁻⁶ cm/s | 92.4 L/h/kg | 58.1 L/h/kg |  |  |  |  |  |  |  |  |  |  |  |  |
| Cc1ccccc1OCC(=O)NCCc1nc2ccccc2n1CCOc1ccccc1Br [Compound 22] |  | 487 L/h/kg | 4.81 | 0.04 ×10⁻⁶ cm/s | 3870 L/h/kg | 123 L/h/kg |  |  |  |  |  |  |  |  |  |  |  |  |
| O=C(COc1ccccc1Br)NCCc1nc2ccccc2n1CCOc1ccccc1Br [Compound 23] |  | 300 L/h/kg | 4.69 | 0.08 ×10⁻⁶ cm/s | 3370 L/h/kg | 136 L/h/kg |  |  |  |  |  |  |  |  |  |  |  |  |
| Cc1ccccc1OCC(=O)NCCc1nc2ccccc2o1 [Compound 37] |  |  |  |  |  |  | 874 L/h/kg | 745 L/h/kg | 3.9 | 19.7 ×10⁻⁶ cm/s | 26.9 L/h/kg | 22.9 L/h/kg |  |  |  |  |  |  |
| O=C(COc1ccc2ccccc2c1Br)NCCc1nc2ccccc2[nH]1 [Compound 34] |  |  |  |  |  |  |  | 607 L/h/kg | 4.4 | 0.3 ×10⁻⁶ cm/s | 540 L/h/kg | 49.9 L/h/kg |  |  |  |  |  |  |
